Measured values as given in ChEMBL document CHEMBL4742386, “4-oxo-3,4-dihydro-1,2,3-benzotriazine derivatives as modulators of gpr139” (2019).

Assays:
Type in all cases: functional
[1] = Induction of c-Fos expression in C57BL/6 mouse assessed as cFos cell count in brain at 0.03 mg/kg for 1 hr by immunohistochemistry (reference value: 470)
[2] = Induction of c-Fos expression in C57BL/6 mouse assessed as cFos cell count in brain at 0.1 mg/kg for 1 hr by immunohistochemistry (reference value: 470)
[3] = Induction of c-Fos expression in C57BL/6 mouse assessed as cFos cell count in brain at 0.3 mg/kg for 1 hr by immunohistochemistry (reference value: 470)
[4] = Induction of c-Fos expression in C57BL/6 mouse assessed as cFos cell count in brain at 3 mg/kg for 1 hr by immunohistochemistry (reference value: 470)
[5] = Induction of c-Fos expression in C57BL/6 mouse assessed as cFos cell count in brain at 0.3 mg/kg for 2 hrs by immunohistochemistry (reference value: 470)
[6] = Induction of c-Fos expression in C57BL/6 mouse assessed as cFos cell count in brain at 0.3 mg/kg for 4 hrs by immunohistochemistry (reference value: 470)
[7] = Induction of c-Fos expression in C57BL/6 mouse assessed as cFos cell count in brain at 0.1 mg/kg for 1 days by immunohistochemistry (reference value: 352); settings: time 1 day
[8] = Induction of c-Fos expression in C57BL/6 mouse assessed as cFos cell count in brain at 0.1 mg/kg for 5 days by immunohistochemistry (reference value: 352 to 450); settings: time 5 day
[9] = Induction of c-Fos expression in C57BL/6 mouse assessed as cFos cell count in brain at 0.1 mg/kg for 10 days by immunohistochemistry (reference value: 450); settings: time 10 day
[10] = Induction of c-Fos expression in C57BL/6 mouse assessed as cFos cell count in brain at 0.01 mg/kg by immunohistochemistry (reference value: 267)
[11] = Induction of c-Fos expression in C57BL/6 mouse assessed as cFos cell count in brain at 0.03 mg/kg by immunohistochemistry (reference value: 267)
[12] = Induction of c-Fos expression in C57BL/6 mouse assessed as cFos cell count in brain at 0.1 mg/kg by immunohistochemistry (reference value: 267)
[13] = Induction of c-Fos expression in C57BL/6 mouse assessed as cFos cell count in brain at 0.3 mg/kg by immunohistochemistry (reference value: 267)
[14] = Induction of c-Fos expression in C57BL/6 mouse assessed as cFos cell count in brain at 1 mg/kg by immunohistochemistry (reference value: 267)
[15] = Induction of c-Fos expression in C57BL/6 mouse assessed as cFos cell count in brain at 0.1 mg/kg for 1 hr by immunohistochemistry (reference value: 413.7)
[16] = Induction of c-Fos expression in C57BL/6 mouse assessed as cFos cell count in brain at 0.3 mg/kg for 1 hr by immunohistochemistry (reference value: 413.7)
[17] = Induction of c-Fos expression in C57BL/6 mouse assessed as cFos cell count in brain at 3 mg/kg for 1 hr by immunohistochemistry (reference value: 413.7)
[18] = Induction of c-Fos expression in C57BL/6 mouse assessed as cFos cell count in brain at 0.3 mg/kg for 2 hrs by immunohistochemistry (reference value: 413.7)
[19] = Induction of c-Fos expression in C57BL/6 mouse assessed as cFos cell count in brain at 0.3 mg/kg for 4 hrs by immunohistochemistry (reference value: 413.7)

| Structure (SMILES) | Activity [1] | Activity [2] | Activity [3] | Activity [4] | Activity [5] | Activity [6] | Activity [7] | Activity [8] | Activity [9] | Activity [10] | Activity [11] | Activity [12] | Activity [13] | Activity [14] | Activity [15] | Activity [16] | Activity [17] | Activity [18] | Activity [19] |
| --- | --- | --- | --- | --- | --- | --- | --- | --- | --- | --- | --- | --- | --- | --- | --- | --- | --- | --- | --- |
| COc1cccc2nnn(CC(=O)N[C@@H](C)c3ccc(C)cc3)c(=O)c12 | 1628 | 2243 | 2458 | 2023 | 2777 | 865 | – | – | – | – | – | – | – | – | – | – | – | – | – |
| C[C@H](NC(=O)Cn1nnc2ccccc2c1=O)c1ccc(OC(F)(F)F)cc1 [ZELATRIAZIN] | – | – | – | – | – | – | 1486 | 1928 | 1684 | 1376 | 986.3 | 1381 | 1408 | 1368 | 787.7 | 1343 | 2365 | 1400 | 2170 |
